Results: EP2310009B1, “PARENTERAL AND ORAL FORMULATIONS OF BENZIMIDAZOLES” (UNIVERSITY OF HOUSTON, priority 2008, dated 2010)

Key:
human plasma protein = conditions: cited from earlier work
[1] = Mebendazole release from SNEDDS, SEDDS, cosolvent and unformulated suspension; type: physicochemical; conditions: 60 minutes; unformulated drug in release media with placebo SNEDDS
Text: Each point represents the mean ± SD of three independent determinations.
The asterisk* depicts significance between groups compared after analysis by ANOVA using Tukey's post-hoc test, at a threshold of significance at p<0.05.

## COC(=O)Nc1nc2ccc(C(=O)c3ccccc3)cc2[nH]1 [MZ, methyl 5-benzoylbenzimidazole-2-carbamate]
Human plasma protein
  drug bound to human plasma protein: about 90%
[1]
  extent of drug release: 1.10%
